The values that follow come from publication PMC7188855, “Nucleic acid recognition and antiviral activity of 1,4-substituted terphenyl compounds mimicking all faces of the HIV-1 Rev protein positively-charged α-helix” (Scientific Reports, 2020).

The target of one assay is DNA duplex DNAd. The experiment in a line: Isothermal titration calorimetry with DNAd duplex. The class given is binding. Particulars: 25 °C, 10 mM sodium phosphate pH 8.2, 0.1 mM EDTA, read-out: equilibrium dissociation constant, related DNA duplex (ITC). As to the method:
(§1) These experiments were performed at 25 °C in MicroCal PEAQ-ITC or Nano-ITC microcalorimeters, and the data was subsequently analysed with MicroCal or Nanoanalyze software, respectively. All species were dissolved in aqueous solutions containing 10 mM sodium phosphate (pH 7.4 or 8.2) and 0.1 mM EDTA. For the IIBh:1a interaction the pH was 7.4, and 10 or 20 μM solutions of IIBh in the sample cell were titrated with 19 injections of 350 or 500 μM solutions of 1a. […]. […] For the DNAd:1a interaction, the pH was 8.2, and 800 or 900 μM solutions of 1a were titrated into 20 μM solutions of DNAd duplex in the sample cell with 19 injections of 2 µL. In both cases, the titration experiments were repeated three times, and the resulting association curves were fitted using a model with a single set of binding sites.
On the technique in general: ITC needs no label: the signal is the heat of the interaction.

Assay [1] addresses RRE subdomain IIB RNA hairpin IIBh. The experiment in a line: Fluorescence intensity binding to fluorescein-labelled IIBh hairpin. Particulars: for IIB-DNA spec., Kd(IIBh)/Kd(IIBh+LTRd) / IIB-tRNA spec., Kd(IIBh)/Kd(IIBh+tRNA): low ionic strength, 10 mM sodium phosphate pH 6.6, uses Kd1. On the set-up: species or system HIV-1. From the text:
We next determined whether the terphenyl molecules blocked the interaction between Rev34–50 and subdomain IIB by binding to the RNA and, if so, whether they recognized subdomain IIB in a manner similar to the Rev34–50 α-helix. We first evaluated subdomain IIB association by measuring changes in the fluorescence intensity of a IIBh RNA hairpin construct containing a fluorescein probe attached to unpaired loop IIB residue U23 (Fig. 1D)[21],[22]. […] However, there were significant differences among the compounds.
These experiments measured association to IIBh-23fl or TARh-8fl RNA molecules labelled with fluorescein at extrahelical loop nucleotides U23 and U8, respectively (Fig. 1D), and were carried out under two different ionic conditions in a Victor X5 plate reader, using excitation and emission wavelengths of 485 and 520 nm, respectively. We also attempted to measure association to an alternative IIBh hairpin containing 2-aminopurine instead of adenine at unpaired loop IIB residue A19[21], but all terphenyls fluoresced at the excitation wavelength of this fluorophore. IIBh-23fl or TARh-8fl (at 100 nM concentration) was equilibrated for 5 minutes after each ligand addition in a buffer containing either 10 mM sodium phosphate pH 6.6 and 0.1 mM EDTA or 10 mM HEPES pH 7.5, 200 mM KCl and 2 mM MgCl2. In addition to the TARh specificity control, the RNA and DNA specificity of the IIBh interactions was assessed by duplicating the experiments in the presence of a 10-fold molar excess (1 μM) of either tRNA^Lys or DNA duplex LTRd. The equilibrium dissociation constants Kd were determined by fitting the fluorescence intensity curves with DYNAFIT[40]. We used one-site, two independent-sites and two interacting-sites binding models for all curves, and the best model was automatically selected by model discrimination analysis, except where indicated. The final graphs were plotted with Prism. All fluorescence intensity experiments were performed at least two times for each compound and condition.

The subject of assay [2] is HIV-1 reverse transcription. In words: qPCR quantification of early and late HIV-1 reverse transcripts in MT-2 cells. Particulars: MT-2 cells infected with NL4.3 for 5 hours. In kind it is cell-based. As to the method: MT-2 cells were pre-treated with two different concentrations of terphenyl molecules 1a, 1d or 3c, selected on the basis of the observed RRE-Rev IC50 and cellular EC50 values, and infected with NL4.3 wild-type HIV-1 for 5 hours. Total genomic DNA was isolated with a QIAamp DNA blood mini kit (Qiagen) and quantified by spectrophotometry. Early and late viral DNAs were quantified by qPCR as previously described. qPCR was performed in triplicate in a StepOne Real-Time PCR system using standard cycling conditions. Serial dilutions of genomic DNA from the 8E5 cell line, which contain a single integrated copy of HIV-1[43], were used as standard curve. The CCR5 gene was used as an endogenous control.
Background: Real-time PCR tracks product formation cycle by cycle.

The target of the next assay is RRE subdomain IIB (IIBh). The experiment in a line: Isothermal titration calorimetry with IIBh. The class given is binding, HIV-1. Particulars: 25 °C; 10 mM sodium phosphate pH 7.4, 0.1 mM EDTA; read-out: equilibrium dissociation constant, RRE subdomain IIB (ITC). As to the method:
as §1

Assay [3] relates to RRE-Rev system (unspliced, single-spliced, multiple-spliced HIV-1 transcripts). The experiment in a line: RT-qPCR analysis of HIV-1 RNA splicing in MT-2 cells. Particulars: 24 and 48 hours post-infection, 100 μM; not statistically significant. In kind it is cell-based. As to the method:
Given that splicing takes place in the nucleus, a blockage of the RRE-Rev system should reduce the levels of unspliced or single-spliced transcripts and increase the proportion of multiple-spliced species.
MT-2 cells were infected with a NL4.3 virus for 2 hours (10 ng/10^6 cells) and treated with two different concentrations of compounds 1a, 1d or 3c for 24, 48, 72 or 96 hours. The compound concentrations were chosen on the basis of the observed RRE-Rev IC50 and cellular EC50 values. Total cellular RNA was isolated, treated with DNase I and reverse-transcribed as previously described[21],[22]. Unspliced, single-spliced and multiple-spliced HIV-1 RNA transcripts were quantified by qPCR relative to a control obtained from untreated cells, using the primers described by Mohammadi et al.[48], and GAPDH as an endogenous control.

Setting [4] is: 10 mM sodium phosphate pH 6.6, 0.1 mM EDTA, two-site model, read-out: Kd (IIBh), first-site Kd1.
[5] abbreviates: 10 mM sodium phosphate pH 6.6, 0.1 mM EDTA, two-site model, read-out: Kd (IIBh), second-site Kd2 (in brackets).
Where [6] appears, read: 10-fold molar excess DNA duplex LTRd, 10 mM sodium phosphate pH 6.6, 0.1 mM EDTA, one-site fit, approximate, read-out: Kd (IIBh+LTRd).
[7] abbreviates: 10-fold molar excess LTRd, 10 mM HEPES pH 7.5, 200 mM KCl, 2 mM MgCl2, read-out: Kd (IIBh+LTRd), one-site or first-site Kd1, Table S2.
[8] abbreviates: 10-fold molar excess tRNALys, 10 mM sodium phosphate pH 6.6, 0.1 mM EDTA, one-site fit, approximate, read-out: Kd (IIBh+tRNA).
The mark [9] stands for this setting: higher ionic strength, 10 mM HEPES pH 7.5, 200 mM KCl, 2 mM MgCl2.
[10] abbreviates: higher ionic strength, 10 mM HEPES pH 7.5, 200 mM KCl, 2 mM MgCl2, read-out: Kd (IIBh), first-site Kd1, Table S2.
[11] abbreviates: higher ionic strength, 10 mM HEPES pH 7.5, 200 mM KCl, 2 mM MgCl2, read-out: Kd (IIBh), second-site Kd2 (in brackets), Table S2.
[12] abbreviates: 10-fold molar excess tRNALys, 10 mM HEPES pH 7.5, 200 mM KCl, 2 mM MgCl2, one-site fit, approximate, read-out: Kd (IIBh+tRNA), Table S2.

Like-named read-outs stand apart in the source and are kept apart here.

For the molecule `COc1cc(CCN)c(-c2cc(C)c(-c3cc(CCN)c(OC)cc3CCN)cc2C)cc1CCN` [Compound 1a], the Kd at DNA duplex DNAd amounted to 6.3 µM; in assay [1] (setting [4]) it was 0.98 µM; in assay [1] (setting [5]), 5.9 µM; in assay [1] (setting [6]), 2.4 µM; in assay [1] (setting [7]), 15 µM; in assay [1] (setting [8]), 28 µM. Further, the Kd stood at 4.4 µM in assay [1] (setting [10]), 18 µM in assay [1] (setting [11]) and 0.5 µM on RRE subdomain IIB (IIBh). The “IIB-DNA spec., Kd(IIBh)/Kd(IIBh+LTRd), Table S2” value in assay [1] (setting [9]) is 0.29. In addition, the “IIB-DNA spec., Kd(IIBh)/Kd(IIBh+LTRd)” value in assay [1] is recorded as 0.41. In assay [1], the “IIB-tRNA spec., Kd(IIBh)/Kd(IIBh+tRNA)” value stood at 0.035. Besides, the “diminished levels of early viral DNA sequences” value in assay [2] is on record as 25%.

For `Cc1cc(-c2cc(CCN)ccc2CCN)c(C)cc1-c1cc(CCN)ccc1CCN` [Compound 1d], the Kd in assay [1] (setting [4]) was found to be 0.87 µM; in assay [1] (setting [5]), 3.5 µM; in assay [1] (setting [6]), 2.2 µM; in assay [1] (setting [7]), 3.7 µM; in assay [1] (10-fold molar excess LTRd, 10 mM HEPES pH 7.5, 200 mM KCl, 2 mM MgCl2, read-out: Kd (IIBh+LTRd), second-site Kd2 (in brackets), Table S2) it was 54 µM; in assay [1] (setting [12]), 42 µM. Also, the Kd in assay [1] (setting [8]) amounted to 7.8 µM; in assay [1] (setting [10]), 7.6 µM; in assay [1] (setting [11]), 30 µM. The “IIB-DNA spec., Kd(IIBh)/Kd(IIBh+LTRd), Table S2” value in assay [1] (setting [9]) is recorded as 2.1. Also, the “IIB-tRNA spec., Kd(IIBh)/Kd(IIBh+tRNA), Table S2” value in assay [1] (setting [9]) was found to be 0.18. Also, in assay [1], the “IIB-DNA spec., Kd(IIBh)/Kd(IIBh+LTRd)” value was determined as 0.40. Also, the “IIB-tRNA spec., Kd(IIBh)/Kd(IIBh+tRNA)” value in assay [1] was 0.11. Also, the “pattern of unspliced, single-spliced and multiple-spliced viral transcripts” value in assay [3] is reported as “clearest patterns consistent with RRE-Rev inhibition”.

For `Cc1cc(-c2cc(CCN)ccc2CCN)c(C)cc1-c1cccc(CCN)c1` [Compound 3c], the Kd in assay [1] (setting [4]) was 6.5 µM; in assay [1] (setting [5]), 26 µM; in assay [1] (setting [6]), 8.1 µM; in assay [1] (setting [7]) it was greater than 50 µM; in assay [1] (setting [12]), greater than 50 µM; in assay [1] (setting [8]), 5.2 µM. Moreover, the Kd in assay [1] (setting [10]) is greater than 50 µM. Besides, in assay [1], the “IIB-DNA spec., Kd(IIBh)/Kd(IIBh+LTRd)” value is listed as 0.80. Further, in assay [1], the “IIB-tRNA spec., Kd(IIBh)/Kd(IIBh+tRNA)” value was determined as 1.3. The “diminished levels of early viral DNA sequences” value in assay [2] is reported as 25%.
